Laboratory results reported in patent publication US9725448B2, “Neprilysin inhibitors” (THERAVANCE BIOPHARMA R&D IP, LLC, priority 2011, dated 2017).

target: T1, human NEP (Homo sapiens, UniProt P08473); assay: In vitro enzyme inhibition assay at human NEP (fluorogenic peptide substrate); type: biochemical; details: pKi values at human NEP (recombinant), given as ranges
T1 construct: purchased R&D Systems, Minneapolis, Minn; 1182-ZN
T1 sequence (P08473 52-750 limits assumed): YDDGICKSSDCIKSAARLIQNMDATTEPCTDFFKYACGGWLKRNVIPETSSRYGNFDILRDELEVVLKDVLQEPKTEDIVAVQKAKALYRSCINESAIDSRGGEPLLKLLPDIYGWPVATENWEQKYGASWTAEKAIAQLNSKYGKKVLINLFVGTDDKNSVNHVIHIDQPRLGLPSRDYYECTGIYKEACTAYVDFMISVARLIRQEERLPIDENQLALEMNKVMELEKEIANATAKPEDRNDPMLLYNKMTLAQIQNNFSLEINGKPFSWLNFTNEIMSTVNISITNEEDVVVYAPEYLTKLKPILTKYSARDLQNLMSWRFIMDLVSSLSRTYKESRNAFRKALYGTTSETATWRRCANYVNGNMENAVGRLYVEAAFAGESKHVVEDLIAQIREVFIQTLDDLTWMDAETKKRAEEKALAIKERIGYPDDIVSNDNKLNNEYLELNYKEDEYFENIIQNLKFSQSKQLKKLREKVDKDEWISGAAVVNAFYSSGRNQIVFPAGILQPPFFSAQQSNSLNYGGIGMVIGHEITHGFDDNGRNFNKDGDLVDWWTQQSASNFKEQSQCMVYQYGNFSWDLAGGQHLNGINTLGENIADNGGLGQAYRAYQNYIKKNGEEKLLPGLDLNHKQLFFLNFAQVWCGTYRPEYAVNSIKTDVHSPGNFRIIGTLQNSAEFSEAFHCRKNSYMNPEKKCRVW

Ki [nM]	Structure (SMILES)
1.26 to 10	O=C(N[C@H](Cc1ccc(-c2ccccc2)cc1)CC1(C(=O)O)CC1)c1cnc(O)nc1 [Example 11-8, 1-{(R)-3-Biphenyl-4-yl-2-[(2-hydroxy-pyrimidine-5-carbonyl)-amino]-propyl}-cyclopropanecarboxylic acid]
12.6 to 100	O=C(N[C@H](Cc1ccc(-c2ccccc2)cc1)CC1(C(=O)O)CC1)c1cc(O)n[nH]1 [Example 11-10, 1-{(R)-3-Biphenyl-4-yl-2-[(5-hydroxy-2H-pyrazole-3-carbonyl)-amino]-propyl}-cyclopropanecarboxylic acid]

The next lines start with the molecule.

Structure (SMILES)	Ki [nM]
O=C(N[C@H](Cc1ccc(-c2ccccc2)cc1)CC1(C(=O)O)CC1)c1cnn[nH]1 [Example 11-1, 1-{(R)-3-Biphenyl-4-yl-2-[(3H-[1,2,3]triazole-4-carbonyl)-amino]-propyl}-cyclopropanecarboxylic acid]	12.6 to 100
O=C(N[C@H](Cc1ccc(-c2ccccc2)cc1)CC1(C(=O)O)CC1)c1nc(O)n[nH]1 [Example 11-3, 1-{(R)-3-Biphenyl-4-yl-2-[(5-hydroxy-2H-[1,2,4]triazole-3-carbonyl)-amino]-propyl}-cyclopropanecarboxylic acid]	1.26 to 10
O=C(N[C@H](Cc1ccc(-c2ccccc2)cc1)CC1(C(=O)O)CC1)c1cc(O)no1 [Example 11-5, 1-{(R)-3-Biphenyl-4-yl-2-[(3-hydroxy-isoxazole-5-carbonyl)-amino]-propyl}-cyclopropanecarboxylic acid]	≤ 1
